Reference: patent US20240174727A1, “LONG-ACTING NATRIURETIC PEPTIDES AND USES THEREOF” (Eli Lilly and Company, priority 2022, published 2024)
Where two headings read alike, the source gives them in different places. Numbered stars: 1 amine (or outer) side, 2 acyl side, 3 side chain; on linkers, the order of the positions; unused ones are H or OH. Bridge positions count the residues as written; N and C are the ends. Square brackets hold non-standard residues; d marks the D form. Peptide text beside a SMILES is read from it. * marks the point of attachment. PEG24 = NCCOCCOCCOCCOCCOCCOCCOCCOCCOCCOCCOCCOCCOCCOCCOCCOCCOCCOCCOCCOCCOCCOCCOCCOCCC(=O)O; C20 diacid = O=C(O)CCCCCCCCCCCCCCCCCCC(=O)*; γGlu = O=C(O)[C@H](CCC(=O)[*:2])N[*:1]; 4Pal = N[C@@H](Cc1ccncc1)C(=O)O; Dap = NC[C@H](N)C(=O)O; CH2 = C([*:1])[*:2]; βAla = NCCC(=O)O

Target: T1, rat NPRA (Rattus norvegicus, UniProt P18910)
T1 construct: Full-Length cDNA Cloning and Generation of Cell Lines Overexpressing Natriuretic Peptide Receptors (NPRs); expressed in transfected cells; host or cells: Jump-in T-Rex HEK293 cells, pJTI R4 CMV-TO MCS pA vector, tetracycline induction
T1 sequence (P18910 29-1057): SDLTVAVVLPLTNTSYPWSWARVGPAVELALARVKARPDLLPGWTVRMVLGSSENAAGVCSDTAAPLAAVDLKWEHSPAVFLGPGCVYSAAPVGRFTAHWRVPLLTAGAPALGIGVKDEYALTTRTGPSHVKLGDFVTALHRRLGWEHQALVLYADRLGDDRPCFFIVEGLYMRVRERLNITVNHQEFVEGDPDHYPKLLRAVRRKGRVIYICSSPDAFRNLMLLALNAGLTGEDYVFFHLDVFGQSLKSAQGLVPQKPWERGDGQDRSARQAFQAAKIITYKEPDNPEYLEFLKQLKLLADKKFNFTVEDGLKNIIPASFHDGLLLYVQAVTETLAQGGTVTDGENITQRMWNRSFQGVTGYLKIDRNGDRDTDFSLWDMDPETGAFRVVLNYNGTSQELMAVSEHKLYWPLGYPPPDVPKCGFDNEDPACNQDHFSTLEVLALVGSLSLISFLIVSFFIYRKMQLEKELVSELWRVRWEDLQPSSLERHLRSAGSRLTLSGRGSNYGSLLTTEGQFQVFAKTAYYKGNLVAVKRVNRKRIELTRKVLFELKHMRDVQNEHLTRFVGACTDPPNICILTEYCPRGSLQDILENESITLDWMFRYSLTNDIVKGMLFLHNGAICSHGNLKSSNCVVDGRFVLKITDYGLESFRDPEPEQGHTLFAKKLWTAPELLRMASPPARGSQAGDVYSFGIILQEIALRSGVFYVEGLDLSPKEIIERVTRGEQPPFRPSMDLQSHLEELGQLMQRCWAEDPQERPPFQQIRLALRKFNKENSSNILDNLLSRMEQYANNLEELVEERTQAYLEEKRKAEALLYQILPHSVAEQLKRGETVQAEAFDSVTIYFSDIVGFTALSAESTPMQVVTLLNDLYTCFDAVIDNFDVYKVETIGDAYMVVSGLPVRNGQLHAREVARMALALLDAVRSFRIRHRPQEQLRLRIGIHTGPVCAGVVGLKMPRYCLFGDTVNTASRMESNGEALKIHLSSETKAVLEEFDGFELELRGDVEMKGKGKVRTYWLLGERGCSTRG
Experiment: Rat NPRA cGMP activity assay (HTRF) in HEK293 cells overexpressing NPRA
Assay type: cell-based
Outline: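 Tetracycline-induced (300 ng/mL, 48 h) T-Rex HEK293 cells expressing NPRA, 4000 cells/well, treated 40 min at room temperature with polypeptide (8 points, 10 μM to 1 pM) in HBSS/HEPES buffer with 0.5 mM IBMX, pH 7.4. cGMP by HTRF, normalised to 100 nM amidated rat ANP and buffer.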

[1] = assay buffer with 0.1% BSA, read-out: cGMP Assay (EC50, pM) w/BSA rNPRA
[2] = assay buffer with 0.1% casein, read-out: cGMP Assay (EC50, pM) w/Casein rNPRA
[3] = cGMP Assay (EC50, pM) w/Casein rNPRA, assay buffer with 0.1% casein
[4] = cGMP Assay (EC50, pM) w/BSA rNPRA, assay buffer with 0.1% BSA

| Compound | EC50 [1] [pM] | EC50 [2] [pM] | EC50 [3] [pM] | EC50 [4] [pM] |
| --- | --- | --- | --- | --- |
| {C20 diacid-γGlu}-EKEKEKGEKPRSSCFG[Dap]RIDRIGHQSGLGCPSFRHGSPSSGAPPPS-NH2 (linker 14-30 via CH2) [Example 137] | 2.19e+06 | 76900 | – | – |
| CC[C@H](C)[C@@H]1NC(=O)[C@H](CCCNC(=N)N)NC(=O)[C@H](CC(=O)O)NC(=O)[C@H]([C@@H](C)CC)NC(=O)[C@H](CCCNC(=N)N)NC(=O)[C@H](CCCCN)NC(=O)CNC(=O)[C@H](Cc2ccccc2)NC(=O)[C@@H](NC(=O)[C@H](CO)NC(=O)[C@H](CO)NC(=O)[C@H](CCCNC(=N)N)NC(=O)CCNC(=O)[C@H](CCCCN)NC(=O)[C@H](CCC(=O)O)NC(=O)COCCOCCNC(=O)COCCOCCNC(=O)COCCOCCNC(=O)COCCOCCNC(=O)COCCOCCNC(=O)COCCOCCNC(=O)CNC(=O)[C@H](CCCCN)NC(=O)[C@H](CCC(=O)O)NC(=O)[C@H](CCCCN)NC(=O)[C@H](CCC(=O)O)NC(=O)[C@H](CCCCN)NC(=O)[C@H](CCC(=O)O)NC(=O)CC[C@H](NC(=O)CCCCCCCCCCCCCCCCCCC(=O)O)C(=O)O)CSCSC[C@@H](C(=O)N2CCC[C@H]2C(=O)N[C@@H](CO)C(=O)N[C@@H](Cc2ccccc2)C(=O)N[C@@H](CCCNC(=N)N)C(=O)N[C@@H](Cc2c[nH]cn2)C(=O)NCC(=O)NCC(=O)N[C@@H](CCCCN)C(=O)N[C@@H](CO)C(=O)N[C@@H](CO)C(=O)NCC(=O)N[C@@H](C)C(=O)N2CCC[C@H]2C(=O)N2CCC[C@H]2C(=O)N2CCC[C@H]2C(=O)N[C@@H](CO)C(N)=O)NC(=O)CNC(=O)[C@H](CC(C)C)NC(=O)CNC(=O)[C@H](CO)NC(=O)[C@H](CCC(N)=O)NC(=O)[C@H](Cc2c[nH]cn2)NC(=O)CNC1=O [Example 89] | – | 13800 | – | – |
| {C20 diacid-γGlu}-EKEKEKGS[4Pal]RRSSCFGGRIGRIGHQSGLGCPSFRHGGPSSGAPPPS-NH2 (disulfide 14-30) [Example 29] | – | – | 16800 | – |
| CC[C@H](C)[C@@H]1NC(=O)[C@H](CCCNC(=N)N)NC(=O)[C@H](CC(=O)O)NC(=O)[C@H]([C@@H](C)CC)NC(=O)[C@H](CCCNC(=N)N)NC(=O)CNC(=O)CNC(=O)[C@H](Cc2ccccc2)NC(=O)[C@@H](NC(=O)[C@H](CO)NC(=O)[C@H](CO)NC(=O)[C@H](CCCNC(=N)N)NC(=O)[C@H](CCCNC(=N)N)NC(=O)[C@H](Cc2ccncc2)NC(=O)[C@H](CO)NC(=O)COCCOCCNC(=O)COCCOCCNC(=O)COCCOCCNC(=O)COCCOCCNC(=O)COCCOCCNC(=O)COCCOCCNC(=O)CNC(=O)[C@H](CCCCN)NC(=O)[C@H](CCC(=O)O)NC(=O)[C@H](CCCCN)NC(=O)[C@H](CCC(=O)O)NC(=O)[C@H](CCCCN)NC(=O)[C@H](CCC(=O)O)NC(=O)CC[C@H](NC(=O)CCCCCCCCCCCCCCCCCCC(=O)O)C(=O)O)CSCSC[C@@H](C(=O)N2CCC[C@H]2C(=O)N[C@@H](CO)C(=O)N[C@@H](Cc2ccccc2)C(=O)N[C@@H](CCCNC(=N)N)C(=O)N[C@@H](Cc2c[nH]cn2)C(=O)NCC(=O)NCC(=O)N[C@@H](CCCCN)C(=O)N[C@@H](CO)C(=O)N[C@@H](CO)C(=O)NCC(=O)N[C@@H](C)C(=O)N2CCC[C@H]2C(=O)N2CCC[C@H]2C(=O)N2CCC[C@H]2C(=O)N[C@@H](CO)C(N)=O)NC(=O)CNC(=O)[C@H](CC(C)C)NC(=O)CNC(=O)[C@H](CO)NC(=O)[C@H](CCC(N)=O)NC(=O)[C@H](Cc2c[nH]cn2)NC(=O)CNC1=O [Example 86] | – | 17900 | – | – |
| {C20 diacid-γGlu}-EKEKEKGEKPRSSCFG[Dap]RIDRIGHYSGLGCPSFRHGSPSSGAPPPS-NH2 (linker 14-30 via CH2) [Example 136] | 2.43e+06 | 32900 | – | – |
| CC[C@H](C)[C@@H]1NC(=O)[C@H](CCCNC(=N)N)NC(=O)[C@H](CC(=O)O)NC(=O)[C@H]([C@@H](C)CC)NC(=O)[C@H](CCCNC(=N)N)NC(=O)[C@H](CCCCN)NC(=O)CNC(=O)[C@H](Cc2ccccc2)NC(=O)[C@@H](NC(=O)[C@H](CO)NC(=O)[C@H](CO)NC(=O)[C@H](CCCNC(=N)N)NC(=O)CCNC(=O)[C@H](CCCCN)NC(=O)[C@H](CCC(=O)O)NC(=O)CCOCCOCCOCCOCCOCCOCCOCCOCCOCCOCCOCCOCCOCCOCCOCCOCCOCCOCCOCCOCCOCCOCCOCCOCCNC(=O)CNC(=O)[C@H](CCCCN)NC(=O)[C@H](CCC(=O)O)NC(=O)[C@H](CCCCN)NC(=O)[C@H](CCC(=O)O)NC(=O)[C@H](CCCCN)NC(=O)[C@H](CCC(=O)O)NC(=O)CC[C@H](NC(=O)CCCCCCCCCCCCCCCCCCC(=O)O)C(=O)O)CSCSC[C@@H](C(=O)N2CCC[C@H]2C(=O)N[C@@H](CO)C(=O)N[C@@H](Cc2ccccc2)C(=O)N[C@@H](CCCNC(=N)N)C(=O)N[C@@H](Cc2c[nH]cn2)C(=O)NCC(=O)NCC(=O)N2CCC[C@H]2C(N)=O)NC(=O)CNC(=O)[C@H](CC(C)C)NC(=O)CNC(=O)[C@H](CO)NC(=O)[C@H](CCC(N)=O)NC(=O)[C@H](Cc2c[nH]cn2)NC(=O)CNC1=O [Example 130] ({C20 diacid-γGlu}-EKEKEKG[PEG24]EK[βAla]RSSCFGKRIDRIGHQSGLGCPSFRHGGP-NH2; linker 15-31 via CH2) | 197000 | 9170 | – | – |
| CC[C@H](C)[C@@H]1NC(=O)[C@H](CCCNC(=N)N)NC(=O)[C@H](CC(=O)O)NC(=O)[C@H]([C@@H](C)CC)NC(=O)[C@H](CCCNC(=N)N)NC(=O)CNC(=O)CNC(=O)[C@H](Cc2ccccc2)NC(=O)[C@@H](NC(=O)[C@H](CO)NC(=O)[C@H](CO)NC(=O)[C@H](CCCNC(=N)N)NC(=O)CCNC(=O)[C@H](CCCCN)NC(=O)[C@H](CCC(=O)O)NC(=O)CNC(=O)[C@H](CCCCN)NC(=O)[C@H](CCC(=O)O)NC(=O)[C@H](CCCCN)NC(=O)[C@H](CCC(=O)O)NC(=O)[C@H](CCCCN)NC(=O)[C@H](CCC(=O)O)NC(=O)CC[C@H](NC(=O)CCCCCCCCCCCCCCCCCCC(=O)O)C(=O)O)CSCSC[C@@H](C(=O)N2CCC[C@H]2C(=O)N[C@@H](CO)C(=O)N[C@@H](Cc2ccccc2)C(=O)N[C@@H](CCCNC(=N)N)C(=O)N[C@@H](Cc2c[nH]cn2)C(=O)NCC(=O)NCC(=O)N2CCC[C@H]2C(=O)N[C@@H](CO)C(=O)N[C@@H](CO)C(=O)NCC(=O)N[C@@H](C)C(=O)N2CCC[C@H]2C(=O)N2CCC[C@H]2C(=O)N2CCC[C@H]2C(=O)N[C@@H](CO)C(N)=O)NC(=O)CNC(=O)[C@H](CC(C)C)NC(=O)CNC(=O)[C@H](CO)NC(=O)[C@H](Cc2ccc(O)cc2)NC(=O)[C@H](Cc2c[nH]cn2)NC(=O)CNC1=O [Example 56] | – | – | 11200 | 1.38e+06 |
| CC[C@H](C)[C@@H]1NC(=O)[C@H](CCCNC(=N)N)NC(=O)[C@H](CC(=O)O)NC(=O)[C@H]([C@@H](C)CC)NC(=O)[C@H](CCCNC(=N)N)NC(=O)CNC(=O)CNC(=O)[C@H](Cc2ccccc2)NC(=O)[C@@H](NC(=O)[C@H](CO)NC(=O)[C@H](CO)NC(=O)[C@H](CCCNC(=N)N)NC(=O)CCNC(=O)[C@H](CCC(=O)O)NC(=O)[C@H](CCCCN)NC(=O)CNC(=O)[C@H](CCCCN)NC(=O)[C@H](CCC(=O)O)NC(=O)[C@H](CCCCN)NC(=O)[C@H](CCC(=O)O)NC(=O)[C@H](CCCCN)NC(=O)[C@H](CCC(=O)O)NC(=O)CC[C@H](NC(=O)CCCCCCCCCCCCCCCCCCC(=O)O)C(=O)O)CSCSC[C@@H](C(=O)N2CCC[C@H]2C(=O)N[C@@H](CO)C(=O)N[C@@H](Cc2ccccc2)C(=O)N[C@@H](CCCNC(=N)N)C(=O)N[C@@H](Cc2c[nH]cn2)C(=O)NCC(=O)NCC(=O)N2CCC[C@H]2C(=O)N[C@@H](CO)C(=O)N[C@@H](CO)C(=O)NCC(=O)N[C@@H](C)C(=O)N2CCC[C@H]2C(=O)N2CCC[C@H]2C(=O)N2CCC[C@H]2C(=O)N[C@@H](CO)C(N)=O)NC(=O)CNC(=O)[C@H](CC(C)C)NC(=O)CNC(=O)[C@H](CO)NC(=O)[C@H](Cc2ccc(O)cc2)NC(=O)[C@H](Cc2c[nH]cn2)NC(=O)CNC1=O [Example 58] | – | – | – | 1.38e+06 |
| {C20 diacid-γGlu}-EKEKEKG[PEG24]S[4Pal]RRSSCFGGRIDRIGHQSGLGCPSFRHGGPSSGAPPPS-NH2 (linker 15-31 via CH2) [Example 61] | – | – | – | 463000 |
